≈ marks a conversion by molar mass, not a printed value.
Assays:
Type in all cases: cell-based
[1] = test system: STAPHYLOCOCCUS AUREUS ATCC 6538P; assay: In vitro antibacterial activity, MIC, BHI agar dilution; conditions: S. aureus ATCC 6538P, 35-37° C., 20 to 24 hours, unit assumed
[2] = test system: STAPHYLOCOCCUS AUREUS A5177; assay: as above; conditions: S. aureus A5177, unit assumed
[3] = test system: STAPHYLOCOCCUS AUREUS A-5278; assay: as above; conditions: S. aureus A-5278, unit assumed
[4] = test system: STAPHYLOCOCCUS AUREUS CMX 642A; assay: as above; conditions: S. aureus CMX 642A, unit assumed
[5] = test system: STAPHYLOCOCCUS AUREUS NCTC10649M; assay: as above; conditions: S. aureus NCTC10649M, unit assumed
[6] = test system: STAPHYLOCOCCUS AUREUS CMX 553; assay: as above; conditions: S. aureus CMX 553, unit assumed
[7] = test system: STAPHYLOCOCCUS AUREUS 1775; assay: as above; conditions: S. aureus 1775, unit assumed
[8] = test system: STAPHYLOCOCCUS EPIDERMIDIS 3519; conditions: S. epidermidis 3519; BHI agar; unit assumed
EN[…] ATCC 8043 = assay: In vitro antibacterial activity, MIC, BHI agar dilution; conditions: E. faecium ATCC 8043, unit assumed
Procedure, shortened: (§1)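 MIC was read visually as the lowest drug level with no growth, a slight haze or sparsely isolated colonies relative to a compound-free growth control. Organisms were spotted at 1:100 dilution (1:10 for slow-growing strains) onto Brain Heart Infusion agar containing serial compound dilutions and incubated 20 to 24 hours at 35-37° C.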

M[…] ATCC 4698 = assay: as above; conditions: M. luteus ATCC 4698, unit assumed
Procedure, shortened: as §1

M[…] ATCC 9341 = assay: as above; conditions: M. luteus ATCC 9341, unit assumed
Procedure, shortened: as §1

STR[…] 508 = assay: as above; conditions: S. agalactiae CMX 508, unit assumed
Procedure, shortened: as §1

[9] = test system: STREPTOCOCCUS BOVIS A-5169; assay: as above; conditions: S. bovis A-5169, unit assumed
[10] = test system: STREPTOCOCCUS PYOGENES EES61; assay: as above; conditions: S. pyogenes EES61, unit assumed
[11] = test system: STREPTOCOCCUS PYOGENES 930; assay: as above; conditions: S. pyogenes 930, unit assumed
[12] = test system: STREPTOCOCCUS PYOGENES PIU 2548; assay: as above; conditions: S. pyogenes PIU 2548, unit assumed
ESCHERICHIA COLI JUHL = conditions: E. coli JUHL; BHI agar; unit assumed
ESCHERICHIA COLI SS = assay: In vitro antibacterial activity, MIC, BHI agar dilution; conditions: E. coli SS, unit assumed
ESCHERICHIA COLI DC-2 = assay: as above; conditions: E. coli DC-2, unit assumed
ESCHERICHIA COLI H560 = assay: as above; conditions: E. coli H560, unit assumed
ESCHERICHIA COLI KNK 437 = conditions: E. coli KNK 437; BHI agar; unit assumed
[13] = test system: ENTEROBACTER AEROGENES ATCC 13048; assay: In vitro antibacterial activity, MIC, BHI agar dilution; conditions: E. aerogenes ATCC 13048, unit assumed
[14] = test system: PROVIDENCIA STUARTII CMX 640; conditions: P. stuartii CMX 640; BHI agar; unit assumed
[15] = test system: PSEUDOMONAS AERUGINOSA BMH10; assay: In vitro antibacterial activity, MIC, BHI agar dilution; conditions: P. aeruginosa BMH10, unit assumed
[16] = test system: PSEUDOMONAS AERUGINOSA 5007; assay: as above; conditions: P. aeruginosa 5007, unit assumed
[17] = test system: PSEUDOMONAS AERUGINOSA K799/WT; assay: as above; conditions: P. aeruginosa K799/WT, unit assumed
[18] = test system: PSEUDOMONAS AERUGINOSA K799/61; assay: as above; conditions: P. aeruginosa K799/61, unit assumed
PSEUDOMONAS CEPACIA 296I = assay: as above; conditions: P. cepacia 296I, unit assumed
[19] = test system: ACINETOBACTER CALCOACETICUS CMX 669; assay: as above; conditions: A. calcoaceticus CMX 669, unit assumed
[20] = test system: PSEUDOMONAS AERUGINOSA DPHD-5263; assay: as above; conditions: P. aeruginosa DPHD-5263, unit assumed
[21] = test system: PSEUDOMONAS AERUGINOSA DPHD-2862; assay: as above; conditions: P. aeruginosa DPHD-2862, unit assumed
CANDIDA ALBICANS CCH 442 = assay: as above; conditions: C. albicans CCH 442, unit assumed
[22] = test system: MYCOBACTERIUM SMEGMATIS ATCC 114; assay: as above; conditions: M. smegmatis ATCC 114, unit assumed
[23] = test system: KLEBSIELLA PNEUMONIAE ATCC 8045; assay: as above; conditions: K. pneumoniae ATCC 8045, unit assumed

Row | SMILES | MIC [1] | MIC [2] | MIC [3] | MIC [4] | MIC [5] | MIC [6] | MIC [7] | MIC [8] | MIC (EN[…] ATCC 8043) | MIC (M[…] ATCC 4698) | MIC (M[…] ATCC 9341) | MIC (STR[…] 508) | MIC [9] | MIC [10] | MIC (ESCHERICHIA COLI JUHL) | MIC (ESCHERICHIA COLI SS) | MIC (ESCHERICHIA COLI DC-2) | MIC (ESCHERICHIA COLI H560) | MIC (ESCHERICHIA COLI KNK 437) | MIC [13] | other results
1 | CC[C@H]1OC(=O)[C@H](C)C(=O)[C@H](C)[C@@H](O[C@@H]2O[C@H](C)C[C@H](N(C)C)[C@H]2O)[C@](C)(OC)C[C@@H](C)C2=N[C@H](COCc3ccccn3)CN3C(=O)O[C@@]1(C)[C@H]3[C@H]2C [Example 81] | 0.39 µg/mL (≈ 0.514 µM) | 0.39 µg/mL (≈ 0.514 µM) | > 100 µg/mL | 0.39 µg/mL (≈ 0.514 µM) | 0.39 µg/mL (≈ 0.514 µM) | 0.39 µg/mL (≈ 0.514 µM) | > 100 µg/mL | 0.39 µg/mL (≈ 0.514 µM) | 0.05 µg/mL (≈ 0.0659 µM) | 0.39 µg/mL (≈ 0.514 µM) | 0.05 µg/mL (≈ 0.0659 µM) | 0.05 µg/mL (≈ 0.0659 µM) | 0.05 µg/mL (≈ 0.0659 µM) | 0.05 µg/mL (≈ 0.0659 µM) | > 100 µg/mL | 1.56 µg/mL (≈ 2.06 µM) | > 100 µg/mL | 50 µg/mL (≈ 65.9 µM) | > 100 µg/mL | > 100 µg/mL | MIC [11]: > 100 µg/mL; MIC [12]: 0.39 µg/mL (≈ 0.514 µM); MIC [14]: > 100 µg/mL; MIC [15]: > 100 µg/mL; MIC [16]: > 100 µg/mL; MIC [17]: > 100 µg/mL; MIC [18]: 3.1 µg/mL (≈ 4.08 µM); MIC (PSEUDOMONAS CEPACIA 296I): > 100 µg/mL; MIC [19]: 100 µg/mL (≈ 132 µM); MIC [20]: > 100 µg/mL; MIC [21]: > 100 µg/mL; MIC (CANDIDA ALBICANS CCH 442): > 100 µg/mL; MIC [22]: 3.1 µg/mL (≈ 4.08 µM)
2 | CC[C@H]1OC(=O)[C@H](C)C(=O)[C@H](C)[C@@H](O[C@@H]2O[C@H](C)C[C@H](N(C)C)[C@H]2O)[C@](C)(OC)C[C@@H](C)C2=N[C@H](COCc3cccnc3)CN3C(=O)O[C@@]1(C)[C@H]3[C@H]2C [Example 82] | 0.39 µg/mL (≈ 0.514 µM) | 0.39 µg/mL (≈ 0.514 µM) | > 100 µg/mL | 0.39 µg/mL (≈ 0.514 µM) | 0.39 µg/mL (≈ 0.514 µM) | 0.39 µg/mL (≈ 0.514 µM) | > 100 µg/mL | 0.39 µg/mL (≈ 0.514 µM) | 0.05 µg/mL (≈ 0.0659 µM) | 0.39 µg/mL (≈ 0.514 µM) | 0.05 µg/mL (≈ 0.0659 µM) | 0.05 µg/mL (≈ 0.0659 µM) | 0.05 µg/mL (≈ 0.0659 µM) | 0.05 µg/mL (≈ 0.0659 µM) | > 100 µg/mL | 0.78 µg/mL (≈ 1.03 µM) | > 100 µg/mL | > 100 µg/mL | > 100 µg/mL | > 100 µg/mL | MIC [11]: > 100 µg/mL; MIC [12]: 0.39 µg/mL (≈ 0.514 µM); MIC [14]: > 100 µg/mL; MIC [15]: > 100 µg/mL; MIC [16]: > 100 µg/mL; MIC [17]: > 100 µg/mL; MIC [18]: 3.1 µg/mL (≈ 4.08 µM); MIC (PSEUDOMONAS CEPACIA 296I): > 100 µg/mL; MIC [19]: > 100 µg/mL; MIC [20]: > 100 µg/mL; MIC [21]: > 100 µg/mL; MIC (CANDIDA ALBICANS CCH 442): > 100 µg/mL; MIC [22]: 3.1 µg/mL (≈ 4.08 µM)
3 | CC[C@H]1OC(=O)[C@H](C)C(=O)[C@H](C)[C@@H](O[C@@H]2O[C@H](C)C[C@H](N(C)C)[C@H]2O)[C@](C)(OC)C[C@@H](C)C2=N[C@H](COCc3ccccc3)CN3C(=O)O[C@@]1(C)[C@H]3[C@H]2C [Example 88] | 0.39 µg/mL (≈ 0.515 µM) | 0.2 µg/mL (≈ 0.264 µM) | > 100 µg/mL | 0.39 µg/mL (≈ 0.515 µM) | 0.2 µg/mL (≈ 0.264 µM) | 0.2 µg/mL (≈ 0.264 µM) | > 100 µg/mL | 0.39 µg/mL (≈ 0.515 µM) | 0.2 µg/mL (≈ 0.264 µM) | 0.2 µg/mL (≈ 0.264 µM) | 0.1 µg/mL (≈ 0.132 µM) | 0.05 µg/mL (≈ 0.066 µM) | 0.02 µg/mL (≈ 0.0264 µM) | ≤ 0.005 µg/mL | > 100 µg/mL | 1.56 µg/mL (≈ 2.06 µM) | > 100 µg/mL | 100 µg/mL (≈ 132 µM) | > 100 µg/mL | > 100 µg/mL | MIC [23]: > 100 µg/mL; MIC [14]: > 100 µg/mL; MIC [15]: > 100 µg/mL; MIC [16]: > 100 µg/mL; MIC [17]: > 100 µg/mL; MIC [18]: 6.2 µg/mL (≈ 8.18 µM); MIC (PSEUDOMONAS CEPACIA 296I): 100 µg/mL (≈ 132 µM); MIC [19]: 100 µg/mL (≈ 132 µM); MIC [20]: > 100 µg/mL; MIC [21]: > 100 µg/mL; MIC (CANDIDA ALBICANS CCH 442): > 100 µg/mL; MIC [22]: 0.39 µg/mL (≈ 0.515 µM)

From patent US6274715A, “Tricyclic erythromycin derivatives” (priority 1997, dated 2001)
